Reference: PubChem BioAssay AID2060883 (Molecular Pharmacology Branch, DTP, NCI, 2025)
pIC50: −log10 of the molar value.

Tested on: 843782-103-R-J1-PDC complex spheroid viability
Experiment: Anticancer human tumor 843782-103-R-J1-PDC patient-derived lung adenocarcinoma cell line growth inhibition [RAS]
Settings: for pIC50: curve of first compound; for viability, T/C: stronger effect = lower value
From the text: RAS pathway inhibitors in Combinations in Complex Spheroids
A high-throughput screen of multi-cell type tumor spheroids was designed to identify active combinations of RAS pathway inhibitors and targeted small molecules. Complex spheroids include a stromal component modeled by human endothelial cells (HUVEC) and fibroblasts modeled by human mesenchymal stem cells (MSCs). The concentration ranges selected for each drug and investigational agent were based upon clinically achievable concentrations if the clinical Cmax of the agent was known.
Compounds. The drugs and investigational agents: abemaciclib (NSC768073), cobimetinib (NSC768068), divarasib (GDC6063, NSC841802), docetaxel (NSC628503), GDC-1971 (RLY-1971, NSC841576), gemcitabine (NSC613327), inavolisib (NSC800729), ipatasertib (NSC767898), KB-0742 (NSC834161), MRTX-1133 (NSC836407), osimertinib (NSC779217), RMC-4630 (NSC839698), RMC-6236 (NSC851965), RMC-6291 (NSC852671), Ro-3306 (NSC812927), sapanisertib (NSC764658), SN-38 (NSC673596), staurosporine (NSC755774), SY5609 (NSC837396), and tovorafenib (DAY101, NSC766906), were obtained from the National Cancer Institute (NCI) Developmental Therapeutics Program Chemical Repository. The FDA-approved anticancer drug set is available from the NCI Developmental Therapeutics Program. […] The stock solutions were prepared in dimethyl sulfoxide (DMSO, Sigma-Aldrich, St. Louis, MO, cat. D2650) at 800-fold the tested concentration and stored at -70 degrees C prior to their use. All drugs and investigational agents were tested over a range starting from a high concentration at or near the clinical Cmax and decreasing in half-log increments. If the clinical Cmax for an agent had not been determined, the highest concentration tested was 10 microM.
Cell Culture. All cells were maintained in an incubator at 37 degrees C and 5% CO2 with 95% humidity. The PDC lines were cultured according to standard operating procedures established by the NCI PDMR. All PDCs were thawed and cultured in Matrigel-coated flasks prepared with a working solution of 1X Ham's F-12 nutrient mix, without supplementation (Invitrogen, Waltham, MA, cat. 11765054), 100 U/mL penicillin-streptomycin (Invitrogen, cat. 15140122), and 2.5% Matrigel (Corning Inc., Corning, NY, cat. 354248) for the first three passages. The 362531-283-R-J2-PDC and 782815-120-R-J1-PDC lines were cultured in 6C/Colon 1B media, which includes advanced DMEM/F-12 (Thermo Fisher Scientific, cat. 12634028), 10 mM HEPES (Thermo Fisher Scientific, cat. 15630080), 1X GlutaMAX supplement (Thermo Fisher Scientific, cat. 35050061), 0.1 mg/mL primocin (InvivoGen, San Diego, CA, cat. ant-pm-2), 10% defined fetal bovine serum, heat inactivated (HyClone Laboratories Inc., Logan, UT, cat. SH30070.03HI), 50% L-WRN conditioned media (ATCC, cat. CRL-3276), 1.25 mM N-Acetyl-L-cysteine (Sigma-Aldrich, cat. A9165), 10 mM nicotinamide (Sigma-Aldrich, cat. N0636), 1X B-27 supplement (Thermo Fisher Scientific, cat. 17504044), 1X N-2 supplement (Thermo Fisher Scientific, cat. 17502048), 50 ng/mL human EGF (Thermo Fisher Scientific, cat. PHG0311), and 10 microM Y-27632 dihydrochloride (Tocris Bioscience, cat. 1254). The K12877-001-R-J1-PDC line was cultured in 6I media, which includes all 6C/Colon 1B media plus 10 ng/mL human FGF-10 (PeproTech, cat. 100-26), 1 ng/mL human FGF-2 (PeproTech, cat. 100-18B), 1 µM prostaglandin E2 (Tocris Bioscience, cat. 2296), […] hydrocortisone (Sigma-Aldrich, cat. H4001), and […] bovine insulin (Sigma-Aldrich, cat. I6634). The K86415-001-R-J1-PDC line was cultured in 6D media, which includes all 6C/Colon 1B media components minus the L-WRN conditioned media. The 485176-168-R4-J1-PDC was cultured in PANC media, which includes all 6C/Colon 1B media plus 100 ng/mL human FGF-10 (PeproTech, cat. 100-26), 500 nM SB-431542 (Selleckchem, cat. S1067), and 10 nM gastrin (Tocris Bioscience, cat. 3006). […]
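Note: viability read after seven days of compound exposure.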

CC(=O)OC12COC1CC(O)C1(C)C(=O)C(O)C3=C(C)C(OC(=O)C(O)C(NC(=O)OC(C)(C)C)c4ccccc4)CC(O)(C(OC(=O)c4ccccc4)C21)C3(C)C (configuration not stated) + C#Cc1c(F)ccc2cc(O)cc(-c3ncc4c(N5CC6CCC(C5)N6)nc(OCC56CCCN5CC(F)C6)nc4c3F)c12
pIC50 (second compound 0.0316 µM): > 7.50 | pIC50 (second compound 0.1 µM): > 7.50 | pIC50 (second compound 0.316 µM): > 7.50 | pIC50 (second compound 1 µM): > 7.50 | pIC50 (second compound 3.16 µM): > 7.50 | pIC50 (second compound 10 µM): > 7.50 | viability, T/C (second compound 0.0316 µM, first compound 0.0316 µM): 4.52% | viability, T/C (second compound 0.0316 µM, first compound 0.1 µM): 3.3% | viability, T/C (second compound 0.0316 µM, first compound 0.316 µM): 5.75% | viability, T/C (second compound 0.0316 µM, first compound 1 µM): 5.44% | viability, T/C (second compound 0.0316 µM, first compound 3.16 µM): 6.53% | viability, T/C (second compound 0.0316 µM, first compound 10 µM): 7.38% | viability, T/C (second compound 0.1 µM, first compound 0.0316 µM): 5.17% | viability, T/C (second compound 0.1 µM, first compound 0.1 µM): 4.75% | viability, T/C (second compound 0.1 µM, first compound 0.316 µM): 5.48% | viability, T/C (second compound 0.1 µM, first compound 1 µM): 5.75% | viability, T/C (second compound 0.1 µM, first compound 3.16 µM): 5.28% | viability, T/C (second compound 0.1 µM, first compound 10 µM): 6.18% | viability, T/C (second compound 0.316 µM, first compound 0.0316 µM): 5.18% | viability, T/C (second compound 0.316 µM, first compound 0.1 µM): 5.95% | viability, T/C (second compound 0.316 µM, first compound 0.316 µM): 5.15% | viability, T/C (second compound 0.316 µM, first compound 1 µM): 5.27% | viability, T/C (second compound 0.316 µM, first compound 3.16 µM): 4.44% | viability, T/C (second compound 0.316 µM, first compound 10 µM): 8.29% | viability, T/C (second compound 1 µM, first compound 0.0316 µM): 4.8% | viability, T/C (second compound 1 µM, first compound 0.1 µM): 6.07% | viability, T/C (second compound 1 µM, first compound 0.316 µM): 7.89% | viability, T/C (second compound 1 µM, first compound 1 µM): 6.08% | viability, T/C (second compound 1 µM, first compound 3.16 µM): 5.69% | viability, T/C (second compound 1 µM, first compound 10 µM): 8.43% | viability, T/C (second compound 3.16 µM, first compound 0.0316 µM): 5.43% | viability, T/C (second compound 3.16 µM, first compound 0.1 µM): 5.83% | viability, T/C (second compound 3.16 µM, first compound 0.316 µM): 5.33% | viability, T/C (second compound 3.16 µM, first compound 1 µM): 4.35% | viability, T/C (second compound 3.16 µM, first compound 3.16 µM): 6.83% | viability, T/C (second compound 3.16 µM, first compound 10 µM): 8.8% | viability, T/C (second compound 10 µM, first compound 0.0316 µM): 5.06% | viability, T/C (second compound 10 µM, first compound 0.1 µM): 3.91% | viability, T/C (second compound 10 µM, first compound 0.316 µM): 6.9% | viability, T/C (second compound 10 µM, first compound 1 µM): 4.34% | viability, T/C (second compound 10 µM, first compound 3.16 µM): 3.89% | viability, T/C (second compound 10 µM, first compound 10 µM): 7.89%
